Data: patent US20260217701A1, “SELECTIVE BET INHIBITORS AND USES THEREOF” (Tay Therapeutics Limited, priority 2022, published 2026)

Experiment: Bleomycin IPF model: body weight and mortality
Assay type: in vivo, C57BI/6J mice
Design: Mean Body Weight Change: unit not given here
Experimental: Male C57BI/6J mice, aged 12 weeks with an approximate weight of 25-30 g were obtained from Jackson Laboratories (Bar Harbor, ME). Animals were acclimated for two weeks prior to study initiation, and were randomized into the experimental groups outlined in Table 32.
Intratracheal (IT) administration of Bleo or PBS control was conducted at the start of the study (Day 0). […] Animals were weighed on Day 0, and indexed boluses of PBS control (Group 1) or Bleo (Groups 2-6) were delivered by IT administration.
Following administration of Bleo, animals (n=10/group) were included in the study if they met the following guidelines on Day 7: (1) a predictable 5% loss in body weight, and (2) the presence of fibrotic pulmonary lesions, detected by micro-CT imaging. 10 animals from Group 1 additionally proceeded as controls. Animals that continued in the study on Day 7 received an oral gavage (OG) administration of PBS, Compound A (1 mg/kg, 3 mg/kg, 10 mg/kg), or Pirfenidone (300 mg/kg), as outlined in Table 31 in 25 μL boluses every other day (QOD), starting on Day 7. Compound A was formulated in 5% (v/v) DMSO/15% (v/v) PEG 400/80% (v/v) E-TPGS in purified water. […]

Cn1cc(-c2ccccc2)c(-c2cn(C)c(=O)c3[nH]c(-c4cnn(C(F)(F)F)c4)cc23)cc1=O [Compound A, 6-methyl-4-(1-methyl-2-oxo-5-phenyl-1,2-dihydropyridin-4-yl)-2-(1-(trifluoromethyl)-1H-pyrazol-4-yl)-1,6-dihydro-7H-pyrrolo[2,3-c]pyridin-7-one]
Mean Body Weight Change (Bleo + Compound A (1 mg/kg) OG QOD from D7, Day 1): 1.269 | Mean Body Weight Change (Bleo + Compound A (1 mg/kg) OG QOD from D7, Day 2): −0.061 | Mean Body Weight Change (Bleo + Compound A (1 mg/kg) OG QOD from D7, Day 3): −0.538 | Mean Body Weight Change (Bleo + Compound A (1 mg/kg) OG QOD from D7, Day 4): −4.382 | Mean Body Weight Change (Bleo + Compound A (1 mg/kg) OG QOD from D7, Day 5): −8.986 | Mean Body Weight Change (Bleo + Compound A (1 mg/kg) OG QOD from D7, Day 6): −11.204 | Mean Body Weight Change (Bleo + Compound A (1 mg/kg) OG QOD from D7, Day 7): −14.465 | Mean Body Weight Change (Bleo + Compound A (1 mg/kg) OG QOD from D7, Day 8): −18.012 | Mean Body Weight Change (Bleo + Compound A (1 mg/kg) OG QOD from D7, Day 9): −17.310 | Mean Body Weight Change (Bleo + Compound A (1 mg/kg) OG QOD from D7, Day 10): −17.947 | Mean Body Weight Change (Bleo + Compound A (1 mg/kg) OG QOD from D7, Day 11): −16.922 | Mean Body Weight Change (Bleo + Compound A (1 mg/kg) OG QOD from D7, Day 12): −17.204 | Mean Body Weight Change (Bleo + Compound A (1 mg/kg) OG QOD from D7, Day 13): −16.710 | Mean Body Weight Change (Bleo + Compound A (1 mg/kg) OG QOD from D7, Day 14): −16.996 | Mean Body Weight Change (Bleo + Compound A (1 mg/kg) OG QOD from D7, Day 15): −16.840 | Mean Body Weight Change (Bleo + Compound A (1 mg/kg) OG QOD from D7, Day 16): 16.698 | Mean Body Weight Change (Bleo + Compound A (1 mg/kg) OG QOD from D7, Day 17): −16.509 | Mean Body Weight Change (Bleo + Compound A (1 mg/kg) OG QOD from D7, Day 18): −16.113 | Mean Body Weight Change (Bleo + Compound A (1 mg/kg) OG QOD from D7, Day 19): −16.612 | Mean Body Weight Change (Bleo + Compound A (1 mg/kg) OG QOD from D7, Day 20): −16.506 | Mean Body Weight Change (Bleo + Compound A (1 mg/kg) OG QOD from D7, Day 21): −16.978 | Mean Body Weight Change (Bleo + Compound A (3 mg/kg) OG QOD from D7, Day 1): 0.712 | Mean Body Weight Change (Bleo + Compound A (3 mg/kg) OG QOD from D7, Day 2): −0.088 | Mean Body Weight Change (Bleo + Compound A (3 mg/kg) OG QOD from D7, Day 3): −1.018 | Mean Body Weight Change (Bleo + Compound A (3 mg/kg) OG QOD from D7, Day 4): −5.198 | Mean Body Weight Change (Bleo + Compound A (3 mg/kg) OG QOD from D7, Day 5): −8.915 | Mean Body Weight Change (Bleo + Compound A (3 mg/kg) OG QOD from D7, Day 6): −11.426 | Mean Body Weight Change (Bleo + Compound A (3 mg/kg) OG QOD from D7, Day 7): −14.024 | Mean Body Weight Change (Bleo + Compound A (3 mg/kg) OG QOD from D7, Day 8): −18.310 | Mean Body Weight Change (Bleo + Compound A (3 mg/kg) OG QOD from D7, Day 9): 18.416 | Mean Body Weight Change (Bleo + Compound A (3 mg/kg) OG QOD from D7, Day 10): −19.029 | Mean Body Weight Change (Bleo + Compound A (3 mg/kg) OG QOD from D7, Day 11): −17.826 | Mean Body Weight Change (Bleo + Compound A (3 mg/kg) OG QOD from D7, Day 12): −18.384 | Mean Body Weight Change (Bleo + Compound A (3 mg/kg) OG QOD from D7, Day 13): −18.055 | Mean Body Weight Change (Bleo + Compound A (3 mg/kg) OG QOD from D7, Day 14): −18.840 | Mean Body Weight Change (Bleo + Compound A (3 mg/kg) OG QOD from D7, Day 15): −19.765 | Mean Body Weight Change (Bleo + Compound A (3 mg/kg) OG QOD from D7, Day 16): −19.797 | Mean Body Weight Change (Bleo + Compound A (3 mg/kg) OG QOD from D7, Day 17): −20.566 | Mean Body Weight Change (Bleo + Compound A (3 mg/kg) OG QOD from D7, Day 18): −21.350 | Mean Body Weight Change (Bleo + Compound A (3 mg/kg) OG QOD from D7, Day 19): −20.021 | Mean Body Weight Change (Bleo + Compound A (3 mg/kg) OG QOD from D7, Day 20): −22.069 | Mean Body Weight Change (Bleo + Compound A (3 mg/kg) OG QOD from D7, Day 21): −22.585 | Mean Body Weight Change (Bleo + Compound A (10 mg/kg) OG QOD from D7, Day 1): 1.987 | Mean Body Weight Change (Bleo + Compound A (10 mg/kg) OG QOD from D7, Day 2): 2.172 | Mean Body Weight Change (Bleo + Compound A (10 mg/kg) OG QOD from D7, Day 3): 0.974 | Mean Body Weight Change (Bleo + Compound A (10 mg/kg) OG QOD from D7, Day 4): 4.101 | Mean Body Weight Change (Bleo + Compound A (10 mg/kg) OG QOD from D7, Day 5): −8.131 | Mean Body Weight Change (Bleo + Compound A (10 mg/kg) OG QOD from D7, Day 6): −9.560 | Mean Body Weight Change (Bleo + Compound A (10 mg/kg) OG QOD from D7, Day 7): −11.173 | Mean Body Weight Change (Bleo + Compound A (10 mg/kg) OG QOD from D7, Day 8): −14.286 | Mean Body Weight Change (Bleo + Compound A (10 mg/kg) OG QOD from D7, Day 9): −15.876 | Mean Body Weight Change (Bleo + Compound A (10 mg/kg) OG QOD from D7, Day 10): −16.428 | Mean Body Weight Change (Bleo + Compound A (10 mg/kg) OG QOD from D7, Day 11): −14.809 | Mean Body Weight Change (Bleo + Compound A (10 mg/kg) OG QOD from D7, Day 12): −13.953 | Mean Body Weight Change (Bleo + Compound A (10 mg/kg) OG QOD from D7, Day 13): −15.394 | Mean Body Weight Change (Bleo + Compound A (10 mg/kg) OG QOD from D7, Day 14): −13.610 | Mean Body Weight Change (Bleo + Compound A (10 mg/kg) OG QOD from D7, Day 15): −15.280 | Mean Body Weight Change (Bleo + Compound A (10 mg/kg) OG QOD from D7, Day 16): −13.218 | Mean Body Weight Change (Bleo + Compound A (10 mg/kg) OG QOD from D7, Day 17): −13.174 | Mean Body Weight Change (Bleo + Compound A (10 mg/kg) OG QOD from D7, Day 18): −14.218 | Mean Body Weight Change (Bleo + Compound A (10 mg/kg) OG QOD from D7, Day 19): −15.010 | Mean Body Weight Change (Bleo + Compound A (10 mg/kg) OG QOD from D7, Day 20): −16.208 | Mean Body Weight Change (Bleo + Compound A (10 mg/kg) OG QOD from D7, Day 21): −16.139 | Ending body weight at Day 21 (Bleo mice, 10 mg/kg): higher ending weight at Day 21 | Body weight course after start of administration (Bleo mice, all doses tested (1, 3, 10 mg/kg)): weight loss was arrested | Body weight compared with Bleo+Saline treated animals (Compound A (all doses tested), Pirfenidone (300 mg/kg)): No significant difference | Deaths / mortality (OG administration, IPF study): no deaths or significant changes in mortality
